In patent US20230050846A1, “TREATMENT OF HEPATIC AND CARDIOVASCULAR DISORDERS” (LIFESEARCH, priority 2019, published 2023):
Peptide text beside a SMILES is read from it. * marks the point of attachment. Palmitoyl = CCCCCCCCCCCCCCCC(=O)*

How the values were obtained:
[1] = tested on: primary mouse hepatocytes; test: Steatotic primary mouse hepatocytes, intracellular triglyceride content; assay type: cell-based; details: 1 μM, 24 h
Procedure: Primary mouse hepatocytes were isolated as described in Example 3 from mice fed western-diet for 11-weeks (Envigo #TD.88137 containing 0.2% cholesterol, 42% kcal from fat, 34% sucrose by weight). Primary mouse hepatocytes were seeded in a 12-well plate at a density of 600,000 cells/well in growth medium and treated for 24 h with apoA-I (10 μg/mL), peptide of formula (I) (1 μM) or peptide of formula (II) (1 μM).
For measurement of intracellular triglyceride content, cells were washed with PBS and scraped in 5% NP-40 lysis buffer and heated for 10 min at 85° C. Triglycerides were then quantified using triglyceride commercial kit (Biolabo #87319). Values were normalized to protein concentration in cell lysates.

human F1Fo-ATPase = molecular target: T1, human F1Fo-ATPase (Homo sapiens, UniProt P06576); test: F1-ATPase activity assay (NADH-coupled, purified enzyme); assay type: biochemical; details: 1 μM
T1 construct: Human F1Fo-ATPase was purified from HepG2 cells by immunocapture; endogenous in cells; host or cells: HepG2 cells; complex isolated by immunocapture with anti-ATP synthase antibody 12F4AD8AF8 (#ab109867, Abcam)
Text: The mature human IF1 protein (SEQ ID NO: 5) was chemically synthesized by GenScript (Piscataway, N.J., USA) at >80% purity. The peptides derived from the mature human IF1 sequence (IF1-1-60, IF1-10-56, IF1-10-47) were produced by BachemAG (Bubendorf, Switzerland) with >90% purity.
Human F1Fo-ATPase was purified from HepG2 cells by immunocapture using mouse monoclonal anti-ATP synthase antibody (12F4AD8AF8, #ab109867, Abcam) according to manufacturer's instructions.
Measurement of F1-ATPase activity was assayed as previously described. Briefly, 10 μg of F1Fo-ATPase was prepared into 50 μL of activity assay buffer (10 mM HEPES, 150 mM NaCl, 5 mM KCl, 5 mM MgCl2, 0.5 mM phosphoenolpyruvate, 250 μM NADH, 100 μM ATP, 20 U lactate dehydrogenase, 120 U pyruvate kinase). The mixture was incubated at 37° C. for 30 min. Then the F1-ATPase activity was measured in a 96-well microplate by adding 5 μL of the mixture (1 μg of F1Fo-ATPase per point) per well to 200 μL of activity assay buffer at 37° C., and by adding 5 μL of buffer with or without peptide (1 μM each). The reduction in the absorbance of NADH was measured at 340 nm for 5 min with a Varioskan™ Flash Multimode Reader (Thermo Fisher Scientific). A slope was calculated for each well and the results expressed as a percentage of the control slope.

C57B/L6J mice fed CDAHFD = test: CDAHFD diet-induced NASH associated hepatic fibrosis mouse model; assay type: in vivo; details: sc infusion two weeks, 5 mg/kg BW/day
Procedure: Wild-type C57B/L6J male mice were purchased from Janvier Labs (Le Genest Saint Isle, France). Mice were caged in animal rooms under specific pathogen free conditions at the animal facility of Rangueil (Anexplo platform, US006, Toulouse, France) with a light/dark schedule of 12 h/12 h. At the initiation of the dietary intervention, all animals were 8 weeks old and were fed ad libitum with a normal chow diet (#V1535 R/M-H, Ssniff, Germany). All animal experimental procedures were conducted in accordance with institutional guidelines on animal experimentation approved by the local ethical committee of animal care and are conformed to the guidelines from Directive 2010/63/EU of the European Parliament on the protection of animals used for scientific purposes or the NIH guideline.
8 weeks old mice were fed for 6 week a choline-deficient, L-amino acid-defined, high-fat diet (CDAHFD #A06071302, Research Diet, USA) consisting of 60 kcal % fat and 0.1% methionine by weight. For the 2 last weeks of the 6-week period, a group of mice were implanted with an osmotic pump containing the peptide of formula (I). Briefly, 200 μL osmotic pump were filled with 10 mg/mL of the peptide of formula (I) in PBS and were implanted subcutaneously into the mice according to the manufacturer's instructions (Alzet®, model pump #2002), to insure the peptide of formula (I) release at an estimated rate of 0.5 μL/h, which corresponds to an estimated amount of delivery of 5 mg of the peptide of formula (I) per kilogram of body weight per day (5 mg/kg BW/day). The control group was composed of mice that underwent the same chirurgical procedure used for osmotic pump implantation (sham-operated mice).
Liver histology. […] Fibrosis was assessed by Sirius Red staining. […]
Hepatic hydroxyproline was determined by hydrolizing 80-140 mg liver in a 6N HCl solution, overnight, at 110 degrees Celsius. […] Absorbance was measured at 550 nm and the results are expressed as micrograms of hepatic hydroxyproline per mg tissue.

wild-type C57B/L6J mice = test: Femoral artery blood flow in conscious mice; assay type: in vivo, mouse; details: data not shown
Text: According to the protocol disclosed in [5], the peptide of formula (I) increased femoral artery blood flow in conscious wild-type C57B/L6J mice in a process that strictly depend on endothelial NO production (data not shown).

stimulation of F1-ATPase activity (human F1Fo-ATPase)	Compound	intracellular accumulation of triglycerides vs PBS control [1]	collagen deposition (Sirius Red staining) (C57B/L6J mice fed CDAHFD; p<0.01 vs sham-operated mice)	decrease in the concentration of hydroxyproline content per milligram of liver (C57B/L6J mice fed CDAHFD; p<0.05 vs sham-operated mice)	CDAHFD diet-induced increase of hepatic fibrosis (C57B/L6J mice fed CDAHFD; vs sham-operated mice)	femoral artery blood flow (wild-type C57B/L6J mice)
43%	CCCCCCCCCCCCCCCC(=O)NCCCC[C@H](NC(=O)[C@H](CCC(=O)O)NC(=O)[C@H](CCCNC(=N)N)NC(=O)[C@H](CO)NC(=O)[C@H](CCC(N)=O)NC(=O)[C@H](C)NC(=O)[C@H](CCCNC(=N)N)NC(=O)[C@H](Cc1ccccc1)NC(=O)[C@H](Cc1ccc(O)cc1)NC(=O)[C@H](CCCNC(=N)N)NC(=O)[C@H](CCC(=O)O)NC(=O)[C@H](CCC(=O)O)NC(=O)[C@H](CCC(=O)O)NC(=O)[C@H](C)NC(=O)[C@H](CCC(N)=O)NC(=O)[C@H](CCC(=O)O)NC(=O)[C@H](CCCNC(=N)N)NC(=O)[C@H](CCCCN)NC(=O)CNC(=O)[C@H](Cc1ccccc1)NC(=O)[C@H](C)NC(=O)CNC(=O)CNC(=O)[C@H](C)NC(=O)[C@H](CCC(=O)O)NC(=O)[C@H](CCCNC(=N)N)NC(=O)[C@@H](NC(=O)[C@H](CO)NC(=O)CNC(=O)[C@H](C)NC(=O)CNC(=O)[C@H](CCCNC(=N)N)NC(C)=O)[C@@H](C)CC)C(N)=O [peptide of formula (II), CH3CO-[SEQ ID NO: 1]-K-[palmitoyl]-NH2] (Ac-RGAGSIREAGGAFGKREQAEEERYFRAQSREK(Palmitoyl)-NH2)	significantly reduced	–	–	–	–
36%	Ac-RGAGSIREAGGAFGKREQAEEERYFRAQSRE-NH2 [peptide of formula (I), CH3CO-[SEQ ID NO: 1]-NH2]	significantly reduced	less collagen deposition	more than 35%	significantly attenuated	increased
